Measurements: ChEMBL document CHEMBL2346657, “Synthesis of novel 2-amino-4-(5'-substituted 2'-phenyl-1H-indol-3'-yl)-6-aryl-4H-pyran-3-carbonitrile derivatives as antimicrobial and antioxidant agents” (2013)
Active and inactive are the calls of the source. The rule behind the calls is not given here.

Test system: not listed separately
Test: Antioxidant activity assessed as metal chelating activity by measuring inhibition of ferrozine-Fe2+ complex formation at 25 to 100 ug/ml
Format: functional
Details: not given

**Q.** Which Activity does the source give for `Cc1ccc2[nH]c(-c3ccccc3)c(C3C=C(c4ccccc4)Oc4[nH]nc(N)c43)c2c1` (stereo not given) here?
**A.** Its Activity is “Active”.

Test system: Aspergillus flavus
Test: Antimicrobial activity against Aspergillus flavus MTCC 1973 at 500 ug/ml after 72 hrs by cup plate method
Format: functional
Details: MTCC 1973, 72 h, read-out: IZ

**Q.** For `Cc1ccc2[nH]c(-c3ccccc3)c(C3C=C(c4ccccc4)Oc4[nH]nc(N)c43)c2c1` (stereo not given), which zone of inhibition at 500 µg/mL is on record?
**A.** The zone of inhibition at 500 µg/mL was 5 mm.

Test system: Aspergillus flavus
Test: Antimicrobial activity against Aspergillus flavus MTCC 1973 at 750 ug/ml after 72 hrs by cup plate method
Format: functional
Details: MTCC 1973, 72 h, read-out: IZ

**Q.** Which zone of inhibition at 750 µg/mL does the source give for `Cc1ccc2[nH]c(-c3ccccc3)c(C3C=C(c4ccccc4)Oc4[nH]nc(N)c43)c2c1` (stereo not given) here?
**A.** Its zone of inhibition at 750 µg/mL is 2 mm.

Test system: Aspergillus flavus
Test: Antimicrobial activity against Aspergillus flavus MTCC 1973 at 1000 ug/ml after 72 hrs by cup plate method
Format: functional
Details: MTCC 1973, 72 h, read-out: IZ

**Q.** For `Cc1ccc2[nH]c(-c3ccccc3)c(C3C=C(c4ccccc4)Oc4[nH]nc(N)c43)c2c1` (stereo not given), which zone of inhibition at 1000 µg/mL is on record?
**A.** Its zone of inhibition at 1000 µg/mL is 1 mm.

Test system: Aspergillus terreus
Test: Antimicrobial activity against Aspergillus terreus MTCC 1782 at 500 ug/ml after 72 hrs by cup plate method
Format: functional
Details: MTCC 1782, 72 h, read-out: IZ

**Q.** Which zone of inhibition at 500 µg/mL does the source give for `Cc1ccc2[nH]c(-c3ccccc3)c(C3C=C(c4ccccc4)Oc4[nH]nc(N)c43)c2c1` (stereo not given) here?
**A.** Its zone of inhibition at 500 µg/mL is 9 mm.

Test system: Aspergillus terreus
Test: Antimicrobial activity against Aspergillus terreus MTCC 1782 at 750 ug/ml after 72 hrs by cup plate method
Format: functional
Details: MTCC 1782, 72 h, read-out: IZ

**Q.** Which zone of inhibition at 750 µg/mL does the source give for `Cc1ccc2[nH]c(-c3ccccc3)c(C3C=C(c4ccccc4)Oc4[nH]nc(N)c43)c2c1` (stereo not given) here?
**A.** The zone of inhibition at 750 µg/mL was 9 mm.

Test system: Aspergillus terreus
Test: Antimicrobial activity against Aspergillus terreus MTCC 1782 at 1000 ug/ml after 72 hrs by cup plate method
Format: functional
Details: MTCC 1782, 72 h, read-out: IZ

**Q.** For `Cc1ccc2[nH]c(-c3ccccc3)c(C3C=C(c4ccccc4)Oc4[nH]nc(N)c43)c2c1` (stereo not given), which zone of inhibition at 1000 µg/mL is on record?
**A.** The zone of inhibition at 1000 µg/mL was 9 mm.

Test system: Aspergillus oryzae
Test: Antimicrobial activity against Aspergillus oryzae MTCC 3567 at 500 ug/ml after 72 hrs by cup plate method
Format: functional
Details: MTCC 3567, 72 h, read-out: IZ

**Q.** For `Cc1ccc2[nH]c(-c3ccccc3)c(C3C=C(c4ccccc4)Oc4[nH]nc(N)c43)c2c1` (stereo not given), which zone of inhibition at 500 µg/mL is on record?
**A.** The zone of inhibition at 500 µg/mL was 9 mm.

Test system: Aspergillus oryzae
Test: Antimicrobial activity against Aspergillus oryzae MTCC 3567 at 750 ug/ml after 72 hrs by cup plate method
Format: functional
Details: MTCC 3567, 72 h, read-out: IZ

**Q.** For `Cc1ccc2[nH]c(-c3ccccc3)c(C3C=C(c4ccccc4)Oc4[nH]nc(N)c43)c2c1` (stereo not given), which zone of inhibition at 750 µg/mL is on record?
**A.** The zone of inhibition at 750 µg/mL was 8 mm.

Test system: Aspergillus oryzae
Test: Antimicrobial activity against Aspergillus oryzae MTCC 3567 at 1000 ug/ml after 72 hrs by cup plate method
Format: functional
Details: MTCC 3567, 72 h, read-out: IZ

**Q.** With `Cc1ccc2[nH]c(-c3ccccc3)c(C3C=C(c4ccccc4)Oc4[nH]nc(N)c43)c2c1` (stereo not given) as the compound, how does the zone of inhibition at 1000 µg/mL read?
**A.** The zone of inhibition at 1000 µg/mL was 8 mm.

Test system: Aspergillus niger
Test: Antimicrobial activity against Aspergillus niger MTCC 281 at 500 ug/ml after 72 hrs by cup plate method
Format: functional
Details: MTCC 281, 72 h, read-out: IZ

**Q.** Which zone of inhibition at 500 µg/mL does the source give for `Cc1ccc2[nH]c(-c3ccccc3)c(C3C=C(c4ccccc4)Oc4[nH]nc(N)c43)c2c1` (stereo not given) here?
**A.** Its zone of inhibition at 500 µg/mL is 5 mm.

Test system: Aspergillus niger
Test: Antimicrobial activity against Aspergillus niger MTCC 281 at 750 ug/ml after 72 hrs by cup plate method
Format: functional
Details: MTCC 281, 72 h, read-out: IZ

**Q.** Which zone of inhibition at 750 µg/mL does the source give for `Cc1ccc2[nH]c(-c3ccccc3)c(C3C=C(c4ccccc4)Oc4[nH]nc(N)c43)c2c1` (stereo not given) here?
**A.** The zone of inhibition at 750 µg/mL was 5 mm.

Test system: Aspergillus niger
Test: Antimicrobial activity against Aspergillus niger MTCC 281 at 1000 ug/ml after 72 hrs by cup plate method
Format: functional
Details: MTCC 281, 72 h, read-out: IZ

**Q.** Which zone of inhibition at 1000 µg/mL does the source give for `Cc1ccc2[nH]c(-c3ccccc3)c(C3C=C(c4ccccc4)Oc4[nH]nc(N)c43)c2c1` (stereo not given) here?
**A.** Its zone of inhibition at 1000 µg/mL is 3 mm.

Test system: Pseudomonas aeruginosa
Test: Antimicrobial activity against Pseudomonas aeruginosa MTCC 1688 at 500 ug/ml after 24 hrs by cup plate method
Format: functional
Details: MTCC 1688, 24 h, read-out: IZ

**Q.** Which zone of inhibition at 500 µg/mL does the source give for `Cc1ccc2[nH]c(-c3ccccc3)c(C3C=C(c4ccccc4)Oc4[nH]nc(N)c43)c2c1` (stereo not given) here?
**A.** The zone of inhibition at 500 µg/mL was 9 mm.

Test system: Pseudomonas aeruginosa
Test: Antimicrobial activity against Pseudomonas aeruginosa MTCC 1688 at 750 ug/ml after 24 hrs by cup plate method
Format: functional
Details: MTCC 1688, 24 h, read-out: IZ

**Q.** Which zone of inhibition at 750 µg/mL does the source give for `Cc1ccc2[nH]c(-c3ccccc3)c(C3C=C(c4ccccc4)Oc4[nH]nc(N)c43)c2c1` (stereo not given) here?
**A.** The zone of inhibition at 750 µg/mL was 8 mm.

Test system: Pseudomonas aeruginosa
Test: Antimicrobial activity against Pseudomonas aeruginosa MTCC 1688 at 1000 ug/ml after 24 hrs by cup plate method
Format: functional
Details: MTCC 1688, 24 h, read-out: IZ

**Q.** With `Cc1ccc2[nH]c(-c3ccccc3)c(C3C=C(c4ccccc4)Oc4[nH]nc(N)c43)c2c1` (stereo not given) as the compound, how does the zone of inhibition at 1000 µg/mL read?
**A.** Its zone of inhibition at 1000 µg/mL is 8 mm.

Test system: Klebsiella pneumoniae
Test: Antimicrobial activity against Klebsiella pneumoniae NCTC 13368 at 500 ug/ml after 24 hrs by cup plate method
Format: functional
Details: NCTC 13368, 24 h, read-out: IZ

**Q.** Which zone of inhibition at 500 µg/mL does the source give for `Cc1ccc2[nH]c(-c3ccccc3)c(C3C=C(c4ccccc4)Oc4[nH]nc(N)c43)c2c1` (stereo not given) here?
**A.** Its zone of inhibition at 500 µg/mL is 3 mm.

Test system: Klebsiella pneumoniae
Test: Antimicrobial activity against Klebsiella pneumoniae NCTC 13368 at 750 ug/ml after 24 hrs by cup plate method
Format: functional
Details: NCTC 13368, 24 h, read-out: IZ

**Q.** For `Cc1ccc2[nH]c(-c3ccccc3)c(C3C=C(c4ccccc4)Oc4[nH]nc(N)c43)c2c1` (stereo not given), which zone of inhibition at 750 µg/mL is on record?
**A.** Its zone of inhibition at 750 µg/mL is 3 mm.

Test system: Klebsiella pneumoniae
Test: Antimicrobial activity against Klebsiella pneumoniae NCTC 13368 at 1000 ug/ml after 24 hrs by cup plate method
Format: functional
Details: NCTC 13368, 24 h, read-out: IZ

**Q.** Which zone of inhibition at 1000 µg/mL does the source give for `Cc1ccc2[nH]c(-c3ccccc3)c(C3C=C(c4ccccc4)Oc4[nH]nc(N)c43)c2c1` (stereo not given) here?
**A.** The zone of inhibition at 1000 µg/mL was 3 mm.

Test system: Staphylococcus aureus
Test: Antimicrobial activity against Staphylococcus aureus ATCC 29513 at 500 ug/ml after 24 hrs by cup plate method
Format: functional
Details: ATCC 29513, 24 h, read-out: IZ

**Q.** For `Cc1ccc2[nH]c(-c3ccccc3)c(C3C=C(c4ccccc4)Oc4[nH]nc(N)c43)c2c1` (stereo not given), which zone of inhibition at 500 µg/mL is on record?
**A.** Its zone of inhibition at 500 µg/mL is 6 mm.

Test system: Staphylococcus aureus
Test: Antimicrobial activity against Staphylococcus aureus ATCC 29513 at 750 ug/ml after 24 hrs by cup plate method
Format: functional
Details: ATCC 29513, 24 h, read-out: IZ

**Q.** For `Cc1ccc2[nH]c(-c3ccccc3)c(C3C=C(c4ccccc4)Oc4[nH]nc(N)c43)c2c1` (stereo not given), which zone of inhibition at 750 µg/mL is on record?
**A.** The zone of inhibition at 750 µg/mL was 5 mm.

Test system: Staphylococcus aureus
Test: Antimicrobial activity against Staphylococcus aureus ATCC 29513 at 1000 ug/ml after 24 hrs by cup plate method
Format: functional
Details: ATCC 29513, 24 h, read-out: IZ

**Q.** With `Cc1ccc2[nH]c(-c3ccccc3)c(C3C=C(c4ccccc4)Oc4[nH]nc(N)c43)c2c1` (stereo not given) as the compound, how does the zone of inhibition at 1000 µg/mL read?
**A.** The zone of inhibition at 1000 µg/mL was 5 mm.

Test system: Escherichia coli
Test: Antimicrobial activity against Escherichia coli MTCC 723 at 500 ug/ml after 24 hrs by cup plate method
Format: functional
Details: MTCC 723, 24 h, read-out: IZ

**Q.** Which zone of inhibition at 500 µg/mL does the source give for `Cc1ccc2[nH]c(-c3ccccc3)c(C3C=C(c4ccccc4)Oc4[nH]nc(N)c43)c2c1` (stereo not given) here?
**A.** Its zone of inhibition at 500 µg/mL is 3 mm.

Test system: Escherichia coli
Test: Antimicrobial activity against Escherichia coli MTCC 723 at 750 ug/ml after 24 hrs by cup plate method
Format: functional
Details: MTCC 723, 24 h, read-out: IZ

**Q.** With `Cc1ccc2[nH]c(-c3ccccc3)c(C3C=C(c4ccccc4)Oc4[nH]nc(N)c43)c2c1` (stereo not given) as the compound, how does the zone of inhibition at 750 µg/mL read?
**A.** The zone of inhibition at 750 µg/mL was 3 mm.

Test system: Escherichia coli
Test: Antimicrobial activity against Escherichia coli MTCC 723 at 1000 ug/ml after 24 hrs by cup plate method
Format: functional
Details: MTCC 723, 24 h, read-out: IZ

**Q.** For `Cc1ccc2[nH]c(-c3ccccc3)c(C3C=C(c4ccccc4)Oc4[nH]nc(N)c43)c2c1` (stereo not given), which zone of inhibition at 1000 µg/mL is on record?
**A.** The zone of inhibition at 1000 µg/mL was 3 mm.
